PubChem BioAssay (NCI)
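Following 48 hours of exposure in 96-well plates, responses at five concentrations were used to interpolate endpoints linearly. GI50 is the concentration that inhibits growth by half. TGI: concentration producing complete growth inhibition.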

How the values were obtained:
Assay in all cases: NCI tumour cell line growth inhibition, 48 h
[1] = test system: MCF7 breast
[2] = test system: HS 578T breast
[3] = test system: SF-539 CNS
[4] = test system: T-47D breast
[5] = test system: COLO 205 colon
[6] = test system: MOLT-4 leukemia
[7] = test system: K-562 leukemia
[8] = test system: HOP-62 NSCLC
[9] = test system: ACHN renal
[10] = test system: HCC-2998 colon
[11] = test system: RXF 393 renal
[12] = test system: CAKI-1 renal
[13] = test system: NCI/ADR-RES ovarian
[14] = test system: HT29 colon
[15] = test system: HCT-15 colon
[16] = test system: OVCAR-5 ovarian
[17] = test system: SK-MEL-5 melanoma
[18] = test system: BT-549 breast
[19] = test system: HL-60(TB) leukemia
[20] = test system: MALME-3M melanoma
[21] = test system: LOX IMVI melanoma
[22] = test system: RPMI-8226 leukemia
[23] = test system: UACC-62 melanoma
[24] = test system: SK-MEL-28 melanoma
[25] = test system: SF-295 CNS
[26] = test system: SNB-75 CNS
[27] = test system: PC-3 prostate
[28] = test system: UACC-257 melanoma
[29] = test system: IGROV1 ovarian
[30] = test system: SNB-19 CNS
[31] = test system: NCI-H23 lung
[32] = test system: SK-OV-3 ovarian
[33] = test system: UO-31 renal
[34] = test system: KM12 colon
[35] = test system: SW-620 colon
[36] = test system: M14 melanoma
[37] = test system: SN12C renal
[38] = test system: NCI-H522 lung
[39] = test system: TK-10 renal
[40] = test system: SF-268 CNS
[41] = test system: HOP-92 NSCLC
[42] = test system: NCI-H226 lung
[43] = test system: EKVX NSCLC
[44] = test system: MDA-MB-231 breast
[45] = test system: MDA-MB-435
[46] = test system: 786-0 renal
[47] = test system: A498 renal
[48] = test system: NCI-H460 lung
[49] = test system: HCT-116 colon
[50] = test system: OVCAR-4 ovarian
[51] = test system: A549 NSCLC
[52] = test system: SK-MEL-2 melanoma
[53] = test system: CCRF-CEM leukemia
[54] = test system: SR leukemia
[55] = test system: OVCAR-8 ovarian
[56] = test system: DU-145 prostate
[57] = test system: OVCAR-3 ovarian
[58] = test system: U251 CNS

Structure (SMILES): CC(=O)O[C@H]1C(=O)[C@@]2(C)[C@H]([C@H](OC(=O)c3ccccc3)[C@]3(O)C[C@H](OC(=O)[C@H](OC(=O)OC[C@H]4COC(C)(C)O4)[C@@H](NC(=O)c4ccccc4)c4ccccc4)C(C)=C1C3(C)C)[C@]1(OC(C)=O)CO[C@@H]1C[C@@H]2O
- GI50 [1]: 5.06 nM
- TGI [1]: > 33300 nM
- GI50 [2]: 16.6 nM
- TGI [2]: 390 nM
- GI50 [3]: 57.9 nM
- TGI [3]: 16700 nM
- GI50 [4]: 43.7 nM
- TGI [4]: > 33300 nM
- GI50 [5]: 21.6 nM
- TGI [5]: > 33300 nM
- GI50 [6]: 40.8 nM
- TGI [6]: > 33300 nM
- GI50 [7]: 12.2 nM
- TGI [7]: > 33300 nM
- GI50 [8]: 59.6 nM
- TGI [8]: > 33300 nM
- GI50 [9]: 343 nM
- TGI [9]: > 33300 nM
- GI50 [10]: 9.83 nM
- TGI [10]: > 33300 nM
- GI50 [11]: 30.7 nM
- TGI [11]: 201 nM
- GI50 [12]: 88.5 nM
- TGI [12]: > 33300 nM
- GI50 [13]: > 33300 nM
- TGI [13]: > 33300 nM
- GI50 [14]: 5.9 nM
- TGI [14]: > 33300 nM
- GI50 [15]: 228 nM
- TGI [15]: > 33300 nM
- GI50 [16]: 43.3 nM
- TGI [16]: > 33300 nM
- GI50 [17]: 83.2 nM
- TGI [17]: > 33300 nM
- GI50 [18]: 57.6 nM
- TGI [18]: > 33300 nM
- GI50 [19]: 16.8 nM
- TGI [19]: > 33300 nM
- GI50 [20]: 227 nM
- TGI [20]: > 33300 nM
- GI50 [21]: 14 nM
- TGI [21]: > 33300 nM
- GI50 [22]: 7.54 nM
- TGI [22]: > 33300 nM
- GI50 [23]: 46 nM
- TGI [23]: > 33300 nM
- GI50 [24]: > 33300 nM
- TGI [24]: > 33300 nM
- GI50 [25]: 36.5 nM
- TGI [25]: 314 nM
- GI50 [26]: 3.33 nM
- TGI [26]: 69.7 nM
- GI50 [27]: 30.5 nM
- TGI [27]: > 33300 nM
- TGI [28]: > 33300 nM
- GI50 [29]: 49.4 nM
- TGI [29]: > 33300 nM
- GI50 [30]: 61.5 nM
- TGI [30]: > 33300 nM
- GI50 [31]: 47.6 nM
- TGI [31]: > 33300 nM
- GI50 [32]: 232 nM
- TGI [32]: > 33300 nM
- GI50 [33]: 738 nM
- TGI [33]: > 33300 nM
- GI50 [34]: 9.43 nM
- TGI [34]: > 33300 nM
- GI50 [35]: 13.8 nM
- TGI [35]: > 33300 nM
- GI50 [36]: 17.1 nM
- TGI [36]: 133 nM
- GI50 [37]: 48.3 nM
- TGI [37]: > 33300 nM
- GI50 [38]: 32.4 nM
- TGI [38]: > 33300 nM
- GI50 [39]: 492 nM
- TGI [39]: > 33300 nM
- GI50 [40]: 165 nM
- TGI [40]: > 33300 nM
- GI50 [41]: 51.9 nM
- TGI [41]: > 33300 nM
- GI50 [42]: 290 nM
- TGI [42]: > 33300 nM
- GI50 [43]: 113 nM
- TGI [43]: > 33300 nM
- GI50 [44]: 73.6 nM
- TGI [44]: > 7740 nM
- GI50 [45]: 3.33 nM
- TGI [45]: 8.52 nM
- GI50 [46]: 122 nM
- TGI [46]: > 33300 nM
- GI50 [47]: 54.5 nM
- TGI [47]: 499 nM
- GI50 [48]: 6.01 nM
- TGI [48]: > 33300 nM
- GI50 [49]: 5.96 nM
- TGI [49]: > 33300 nM
- GI50 [50]: > 33300 nM
- TGI [50]: > 33300 nM
- GI50 [51]: 29.5 nM
- TGI [51]: > 33300 nM
- GI50 [52]: 97.8 nM
- TGI [52]: > 33300 nM
- GI50 [53]: 26.5 nM
- TGI [53]: > 33300 nM
- GI50 [54]: 12.6 nM
- TGI [54]: > 33300 nM
- GI50 [55]: 59.8 nM
- TGI [55]: > 33300 nM
- GI50 [56]: 29 nM
- GI50 [57]: 10.9 nM
- TGI [57]: 252 nM
- GI50 [58]: 28.8 nM
- TGI [58]: > 33300 nM
